Reference: patent publication US9737525B2, “Small molecule activators of NRF2 pathway” (The General Hospital Corporation, priority 2013, dated 2017)

Tests used:
BV2 microglia cells = experiment: Transcriptional expression profiling in LPS-induced microglia BV2 cells (qRT-PCR); assay type: cell-based, mouse
Description: To further validate the NRF2 activating properties of MIND4, effects of the compound on repression of inflammatory responses were tested in LPS-induced BV2 microglia cells, a model in which the influence of NRF2 signaling on inflammation has been well established (Koh et al., 2011). A BV2 mouse microglia cell line was maintained in DMEM media supplemented with 10% FBS (Sigma) and antibiotic-antimycotic mix. Cells were seeded into 12 well plates at the density of 3×10^5 cells/well. Cells were treated with the indicated concentrations of MIND4, MIND4-17, and MIND4A compounds for 24 hr. Cells were then stimulated with 10 ng/ml LPS (E. coli) for 2 hr. Total RNA was isolated using ZR Miniprep kit (Zymo Research). 1 μg of total RNA was used to prepare cDNA. Gene expression was analyzed using VeriQuest SYBR green assay in Roche480 thermocycler. The sequences of gene-specific primers for qPCR were as follows: […]
Immortalized bone marrow derived mouse macrophages (iBMMs) and BV2 mouse microglia cell line were used in the present study. Both cell types were maintained in DMEM media supplemented with 10% FBS and antibiotic-antimycotic mix. Cells were seeded into 12 well plates at the density of 3×10^5 cells/well. Cells were treated with the indicated concentrations of MIND4-17 compounds for 24 hr. Cells were then stimulated with 10 ng/ml LPS (E. coli, Sigma) for 2 hr. Total RNA was isolated using ZR Miniprep kit (Zymo Research). […] of total RNA was used to prepare cDNA. Gene expression was analyzed using VeriQuest SYBR green assay (Affymetrix) in Roche480 thermocycler. Primer sequences are as described above (see Example 9).

[1] = system: LUHMES cells overexpressing aSyn; experiment: Viability assay (adenylate kinase release) in differentiated LUHMES cells overexpressing aSyn; assay type: cell-based; conditions: 0.4 μM and 1 μM, 96 hr
Description: LUHMES cells were maintained as proliferating cultures and differentiated into post-mitotic-like neurons on Nunclon plates and flasks, pre-coated with 50 μg/mL poly-L-ornithine (Sigma) and 1 μg/mL fibronectin (Sigma). Specifically, 8×10^6 proliferating LUHMES cells were seeded into a T175 flask containing proliferation medium, consisting of advanced DEMEM/F12 (Invitrogen), 2 mM L-glutamine (Sigma-Aldrich), 1×N2 supplement (Invitrogen) and 40 ng/mL recombinant human bFGF (R&D Systems). After 24 hr, proliferation medium was replaced with differentiation medium, composed of advanced DMEM/F12 (Invitrogen), 2 mM L-glutamine (Sigma-Aldrich), 1×N2 supplement (Invitrogen), 1 mM dibutyryl 3′, 5′-cyclic adenosine monophosphate (Sigma-Aldrich), 2.25 μM tetracycline and 2 ng/mL recombinant human GDNF (R&D Systems). 48 hr later, cells were trypsinized and seeded into 24-well plates, containing 1 mL of differentiation medium and 250,000 cells/well.
For lenti-virus based expression the following transfer plasmids have been constructed. […] The measurement of transgene expression has been determined by qRT PCR using SYBR GREEN, after infection of 293-Hek-cells, and specific primers to the woodchuck hepatitis virus posttranscriptional regulatory element (WPRE) as described previously (PMID: 12718761). […]

[2] = BV2 cells, dose-dependent, 24 hr

Row | SMILES | Expression of inflammatory factors TNFα, IL-6, IL-1β and MCP-1 (BV2 microglia cells; [2]) | Transcription of GCLM and NQO1 (BV2 microglia cells; [2]) | Protection against αSyn toxicity [1] | TNFα and IL-6 gene expression (BV2 microglia cells; 3 μM 24 hr pre-treatment, LPS-activated BV2 cells) | IL-1β and MCP-1 transcription (BV2 microglia cells; 3 μM 24 hr pre-treatment, basal and LPS-induced BV2 cells)
1 | O=[N+]([O-])c1ccc(Sc2nnc(COc3ccccc3)n2-c2ccccc2)nc1 [MIND4-17] | repressed transcriptional expression of inflammatory factors | increased transcription of the canonical NRF2 target genes GCLM and NQO1 | significant protective effects |  | 
2 | O=[N+]([O-])c1ccc(Sc2nnc(COc3ccccc3)n2-c2ccccc2)c2ncccc12 [MIND4, 5-nitro-8-{[5-(phenoxymethyl)-4-phenyl-4H-1,2,4-triazol-3-yl]thio}quinoline] |  |  | only mild protection | correspondingly reduced | repression of both basal and LPS-induced transcription
